Literature values, collected in patent US12534749B2, “Monoacylated MEL-producing microorganism” (NATIONAL INSTITUTE OF ADVANCED INDUSTRIAL SCIENCE AND …, priority 2019, dated 2026).

Conditions: known value, T. Fukuoka et al., Carbohydrate Research 351 (2012) 81-86

## diacylated MEL-B
  CMC: 3.1 µM
